{"source": "patent US20170291958A1", "about": "“Compositions and Methods For the Modulation of Ras Proteins” (NEW YORK UNIVERSITY, priority 2016, published 2017)", "format_in_all_cases": "cell-based", "key": {"KRAS sumoylation": {"tested_on": "KRAS sumoylation", "test": "KRAS sumoylation in transfected MiaPaCa-2 cells (Flag immunoprecipitation, HA blot)", "conditions": "MiaPaCa-2 cells transfected with Flag-KRAS and HA-SUMO3, treated 18 h (FIG. 2A)", "experimental": "FIGS. 2A-2E. Lysine 42 is a primary site for sumoylation. (FIG. 2A) MiaPaCa-2 cells were transfected with Flag-KRAS and HA-SUMO3 expression constructs for 24 h and then treated with or without 2-D08 for 18 h. Cells were then lysed and equal amounts of the lysates were immunoprecipitated with the anti-Flag antibody. Flag precipitates, along with lysate inputs, were blotted with antibodies to HA and Flag, respectively. (FIG. 2B) HEK293T cells were co-transfected with plasmid constructs expressing Flag-KRAS, HA-SUMO3, and SENP isoforms as indicated. Equal amounts of protein lysates were immunoprecipitated with the anti-Flag antibody. Flag immunoprecipitates were immunoblotted with antibodies to Flag or HA. […]\nTotal cell lysates were prepared in a buffer [50 mM Tris-HCl (pH 7.5), 150 mM NaCl, 1% IGEPAL, 0.1% SDS, and 0.5% sodium deoxycholate] supplemented with a mixture of protease and phosphatase inhibitors. […] Protein concentrations were measured using the bicinchoninic acid protein assay reagent kit (Pierce Chemical Co). […]\nHEK-293T cells were lysed in TBSN buffer [20 mM Tris-Cl (pH 8.0), 150 mM NaCl, 0.5% NP-40, 5 mM EGTA, 1.5 mM EDTA, 0.5 mM Na3VO4, and […]-Glycerol phosphate]. […] After incubation, proteins bound to each resin were washed extensively with the binding buffer, eluted in the SDS-PAGE sample buffer, and analyzed by SDSPAGE."}, "MiaPaCa-2 cells": {"tested_on": "MiaPaCa-2 cells", "test": "Wound-healing assay, MiaPaCa-2 cells", "conditions": "MiaPaCa-2 cells (KRASV12), various concentrations, 18 h (FIG. 7B, 7D)", "experimental": "(§1) FIGS. 7A-7E. SUMO inhibitor blocks migration of pancreatic cancer cells with KRASV12 mutation. (FIG. 7A) MiaPaCa-2 cells transfected with various KRAS expression constructs or the vector as indicated for 24 h. A GFP-expressing plasmid was used for co-transfection. Transfected cells were then used for wound-healing assays as described in Methods. Representative images of the assay and GFP expression are shown. (FIG. 7B) Both BxPC-3 and MiaPaCa-2 cells were employed for wound-healing assays. Cells with open scratches were treated with various concentrations of 2-D08 for 18 h. Representative images of cells before and after recovery in the presence of 2-D08 for 18 h are shown. (FIG. 7C & FIG. 7D) Data were summarized from experiments as shown in A and B, respectively. (FIG. 7E) MiaPaCa-2 cells treated with or without 2-D08 were lysed and equal amounts of cell lysates were blotted with antibodies to N-Cadherin, ZEB1/TCF8, ZO-1, PARP-1 and B-actin, respectively.\n(§2) RAS proteins were the first, and remain the best-studied, oncoproteins. However, to date no compounds that target RAS have been approved for clinic applications for cancer treatment. As a proof-of-principle study, we next determined whether 2-D08 that blocks RAS sumoylation (FIG. 2A) would suppress tumor cell migration in a KRAS-dependent manner. […]"}, "BxPC-3 cells": {"tested_on": "BxPC-3 cells", "test": "Wound-healing assay, BxPC-3 cells", "conditions": "BxPC-3 cells that harbor no KRAS mutation, various concentrations, 18 h (FIG. 7B, 7D)", "experimental": "as §1, §2"}, "[1]": {"tested_on": "ZEB1/TCF8, ZO-1 expression in MiaPaCa-2 cells", "test": "Immunoblot of migration/EMT gene products in MiaPaCa-2 cells", "experimental": "as §1\nRAS proteins were the first, and remain the best-studied, oncoproteins. However, to date no compounds that target RAS have been approved for clinic applications for cancer treatment. As a proof-of-principle study, we next determined whether 2-D08 that blocks RAS sumoylation (FIG. 2A) would suppress tumor cell migration in a KRAS-dependent manner.\nTotal cell lysates were prepared in a buffer [50 mM Tris-HCl (pH 7.5), 150 mM NaCl, 1% IGEPAL, 0.1% SDS, and 0.5% sodium deoxycholate] supplemented with a mixture of protease and phosphatase inhibitors. HEK293T Tet-on cells were engineered to express KRASV12 or KRASV12/42R mutants in the presence of doxycycline. At various times post addition of doxycycline, cells were collected and lysed in the same buffer as above. Protein concentrations were measured using the bicinchoninic acid protein assay reagent kit (Pierce Chemical Co). Equal amounts of protein lysates from various samples were used for SDS-PAGE analysis followed by immunoblotting. […]"}, "[2]": {"conditions": "MiaPaCa-2 cells, immunoblot (FIG. 7E)"}}, "note": "“Also recorded” adds a separate entry of the source."}
{"smiles": "O=c1cc(-c2ccc(O)c(O)c2O)oc2ccccc12", "note": "[2-D08, 2-(2,3,4-Trihydroxyphenyl)-4H-chromen-4-one]", "values": [{"measurement": "KRAS sumoylation", "setting": "KRAS sumoylation", "result": "blocked KRAS sumoylation in a concentration-dependent manner"}, {"measurement": "cell migration (wound healing)", "setting": "MiaPaCa-2 cells", "result": "blocked MiaPaCa-2 cell migration in a concentration-dependent manner; also recorded: reduces migration rate of pancreatic cancer cells with KRASV12 in a concentration-dependent manner"}, {"measurement": "cell migration (wound healing)", "setting": "BxPC-3 cells", "result": "did not have an effect on inhibiting cell migration"}, {"measurement": "expression of ZEB1/TCF8", "setting": "[1]; [2]", "result": "suppressed expression of ZEB1/TCF8"}, {"measurement": "expression of ZO-1", "setting": "[1]; [2]", "result": "promoted expression of ZO-1"}, {"measurement": "expression of genes involved in EMT", "setting": "[1]; pancreatic cancer cells with KRASV12 (FIG. 7)", "result": "suppresses expression of genes involved in EMT"}]}
